One compound from patent US10000483B2, “Bone marrow on X chromosome kinase (BMX) inhibitors and uses thereof” (Dana-Farber Cancer Institute, Inc., priority 2012, dated 2018) can be followed below.

One may read the IC50 as the concentration that inhibits the measured activity by half. Higher therefore signals lower potency. For orientation: inhibition means how much of the control response was suppressed. As usually defined, the GI50 is the concentration at which growth is held to half of that of the control. By EC50 is commonly meant the midpoint of the concentration-response curve.

For one test, the target named is mTORC1 (Homo sapiens (Human), UniProt P42345). Put plainly: Invitrogen Select Screening in vitro kinase assay. Type of test: biochemical.
A further test addresses IRAK3 (Homo sapiens (Human), UniProt Q9Y616). Put plainly: Kinase panel at 1 uM (Table 9). Format: binding. Conditions: read-out: % inhibition at 1 uM, IRAK3.
A further test addresses JNK3 (Homo sapiens (Human), UniProt P53779). Put plainly: Kinase panel at 1 uM (Table 9). Type of test: binding. As to conditions: read-out: % inhibition at 1 uM, JNK3.
Another test relates to C4-2 cells. Kind of test: cells. Conditions: C4-2, read-out: GI50, C4-2.
In test [1] the test system is TEL-JAK2 transformed Ba/F3 cells. Put plainly: cells. As to conditions: Mus musculus, BaF3, read-out: GI50, TEL-JAK2.
For another test, the target named is BMX (Homo sapiens (Human), UniProt P51813). Kind of test: Invitrogen Select Screening in vitro kinase assay. Type of test: biochemical.
A further test concerns the target DYRK1A (Homo sapiens (Human), UniProt Q13627). Put plainly: Kinase panel at 1 uM (Table 9). Type of test: binding. Conditions: read-out: % inhibition at 1 uM, DYRK1A.
The target in another test is YSK4 (Homo sapiens (Human), UniProt Q56UN5). Kind of test: Kinase panel at 1 uM (Table 9). Format: binding. As to conditions: read-out: % inhibition at 1 uM, YSK4.
For the next test, the target named is PIK4CB (Homo sapiens (Human), UniProt Q9UBF8). Kind of test: Kinase panel at 1 uM (Table 9). Type of test: binding. As to conditions: read-out: % inhibition at 1 uM, PIK4CB.
The test system of a further test is Ramos cells. Kind of test: Cell proliferation analysis for WM and lymphoma cell lines (CellTiter-Glo). As to conditions: Homo sapiens, 72 hours. Format: cell-based. (ATP-based viability assays read luminescence as a measure of living cells.)
In another test the target is TEC (Homo sapiens (Human), UniProt P42680). Put plainly: Invitrogen Select Screening in vitro kinase assay. Type of test: biochemical. From the text: (§1) The in vitro activity of compounds of Formula (I) and (II) in inhibiting BMX and other kinases were obtained using an Invitrogen Select Screening assay as known in the art. The IC50 values determined from this assay are shown below.

For the next test, the target named is BLK (Homo sapiens (Human), UniProt P51451). Put plainly: Invitrogen Select Screening in vitro kinase assay. Format: biochemical.
Description: as §1

Test [2] deals with T1, mTOR (Homo sapiens (Human), UniProt P42345). Put plainly: Invitrogen Select Screening in vitro kinase assay. Type of test: biochemical.
Description: as §1

In a further test the target is MEK5 (Homo sapiens (Human), UniProt Q13163). Put plainly: Kinase panel at 1 uM (Table 9). Type of test: binding. As to conditions: read-out: % inhibition at 1 uM, MEK5.
Test [3] relates to TEL-Abl transformed Ba/F3 cells. Kind of test: cells. Conditions: Mus musculus, BaF3, read-out: GI50, TEL-Abl.
In test [4] the test system is RV-1 cells expressing wild-type BMX or C496S mutant. As to conditions: FIG. 16.
The target in another test is CLK1 (Homo sapiens (Human), UniProt P49759). Put plainly: DiscoverX binding assay. As to conditions: read-out: % inhibition at 1 uM, CLK1.
For another test, the system named is RV-1 cells. Kind of test: Anti-proliferation assay for prostate cancer cells (CellTiter-Glo). Type of test: cell-based.
The target in test [5] is T1, mTOR. Put plainly: DiscoverX binding assay. As to conditions: read-out: % inhibition at 1 uM, MTOR.
Description: (§2) Screening hits are identified by measuring the amount of protein captured in test versus control samples by using a quantitative, precise, and ultra-sensitive qPCR method that detects the associated DNA label.
The target in the next test is CLK2 (Homo sapiens (Human), UniProt P49760). Put plainly: DiscoverX binding assay. Conditions: read-out: % inhibition at 1 uM, CLK2.

Where only a bound is given, the exact number is not on record here.

CLK1, sequence (P49759 whole entry): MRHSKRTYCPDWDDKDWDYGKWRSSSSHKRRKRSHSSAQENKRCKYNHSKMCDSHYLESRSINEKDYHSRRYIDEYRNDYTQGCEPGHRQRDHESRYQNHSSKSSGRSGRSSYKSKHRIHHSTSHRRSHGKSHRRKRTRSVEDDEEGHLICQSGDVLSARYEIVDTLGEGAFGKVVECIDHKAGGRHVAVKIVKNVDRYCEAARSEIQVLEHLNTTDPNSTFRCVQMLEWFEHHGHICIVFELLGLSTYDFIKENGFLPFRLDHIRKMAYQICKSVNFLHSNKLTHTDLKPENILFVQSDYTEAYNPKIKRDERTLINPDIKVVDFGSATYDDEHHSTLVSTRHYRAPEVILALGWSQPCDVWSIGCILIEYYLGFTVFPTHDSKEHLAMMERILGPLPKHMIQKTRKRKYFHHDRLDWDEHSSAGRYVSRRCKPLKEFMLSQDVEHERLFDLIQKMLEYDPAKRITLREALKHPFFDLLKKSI
PIK4CB, sequence (Q9UBF8 whole entry): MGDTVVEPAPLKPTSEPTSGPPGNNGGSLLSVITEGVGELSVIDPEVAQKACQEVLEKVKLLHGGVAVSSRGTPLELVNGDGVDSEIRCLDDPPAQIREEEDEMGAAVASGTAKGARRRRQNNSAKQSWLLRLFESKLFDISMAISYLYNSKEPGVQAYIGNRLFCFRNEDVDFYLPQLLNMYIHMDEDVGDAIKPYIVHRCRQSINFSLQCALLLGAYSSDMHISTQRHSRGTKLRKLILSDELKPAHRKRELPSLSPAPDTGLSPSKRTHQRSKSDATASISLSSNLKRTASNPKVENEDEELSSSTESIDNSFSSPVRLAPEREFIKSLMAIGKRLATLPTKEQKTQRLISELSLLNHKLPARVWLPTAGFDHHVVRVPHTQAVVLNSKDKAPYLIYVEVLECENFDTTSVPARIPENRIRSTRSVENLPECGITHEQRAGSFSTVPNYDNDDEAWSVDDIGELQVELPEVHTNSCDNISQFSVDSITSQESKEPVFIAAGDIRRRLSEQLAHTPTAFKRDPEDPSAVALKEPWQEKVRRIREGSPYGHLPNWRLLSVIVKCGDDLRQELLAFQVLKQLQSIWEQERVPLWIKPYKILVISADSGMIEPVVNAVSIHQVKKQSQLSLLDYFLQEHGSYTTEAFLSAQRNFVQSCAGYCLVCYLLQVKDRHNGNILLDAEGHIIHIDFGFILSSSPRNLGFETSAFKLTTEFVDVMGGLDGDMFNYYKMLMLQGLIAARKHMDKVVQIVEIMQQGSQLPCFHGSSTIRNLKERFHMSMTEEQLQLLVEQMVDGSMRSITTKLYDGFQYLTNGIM
JNK3, sequence (P53779 whole entry): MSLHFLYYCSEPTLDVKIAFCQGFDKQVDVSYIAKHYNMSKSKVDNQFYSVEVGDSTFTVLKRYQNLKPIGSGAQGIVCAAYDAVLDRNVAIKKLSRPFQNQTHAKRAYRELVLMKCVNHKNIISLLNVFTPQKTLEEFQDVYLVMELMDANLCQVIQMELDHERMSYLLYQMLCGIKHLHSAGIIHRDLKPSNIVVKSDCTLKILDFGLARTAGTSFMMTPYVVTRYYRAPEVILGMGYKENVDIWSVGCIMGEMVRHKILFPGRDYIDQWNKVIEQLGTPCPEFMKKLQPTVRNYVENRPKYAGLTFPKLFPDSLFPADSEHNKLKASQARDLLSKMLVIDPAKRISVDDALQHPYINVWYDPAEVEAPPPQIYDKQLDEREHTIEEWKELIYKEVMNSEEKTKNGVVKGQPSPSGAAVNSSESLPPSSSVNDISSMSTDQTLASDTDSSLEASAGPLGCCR
IRAK3, sequence (Q9Y616 whole entry): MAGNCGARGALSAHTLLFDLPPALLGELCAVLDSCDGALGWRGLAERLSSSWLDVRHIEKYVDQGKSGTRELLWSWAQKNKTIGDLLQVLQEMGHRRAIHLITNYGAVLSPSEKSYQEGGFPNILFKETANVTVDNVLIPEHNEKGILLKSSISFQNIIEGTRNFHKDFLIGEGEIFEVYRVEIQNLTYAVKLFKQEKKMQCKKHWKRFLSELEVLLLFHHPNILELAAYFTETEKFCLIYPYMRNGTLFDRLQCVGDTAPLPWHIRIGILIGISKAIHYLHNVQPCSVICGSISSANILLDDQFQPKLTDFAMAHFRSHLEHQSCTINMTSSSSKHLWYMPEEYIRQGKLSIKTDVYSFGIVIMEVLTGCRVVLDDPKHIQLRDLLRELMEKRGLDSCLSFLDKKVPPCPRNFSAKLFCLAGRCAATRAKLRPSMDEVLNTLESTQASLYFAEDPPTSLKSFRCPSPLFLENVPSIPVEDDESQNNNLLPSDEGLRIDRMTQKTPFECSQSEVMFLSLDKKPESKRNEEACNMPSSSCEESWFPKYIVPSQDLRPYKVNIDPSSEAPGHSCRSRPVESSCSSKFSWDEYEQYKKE
TEC, sequence (P42680 whole entry): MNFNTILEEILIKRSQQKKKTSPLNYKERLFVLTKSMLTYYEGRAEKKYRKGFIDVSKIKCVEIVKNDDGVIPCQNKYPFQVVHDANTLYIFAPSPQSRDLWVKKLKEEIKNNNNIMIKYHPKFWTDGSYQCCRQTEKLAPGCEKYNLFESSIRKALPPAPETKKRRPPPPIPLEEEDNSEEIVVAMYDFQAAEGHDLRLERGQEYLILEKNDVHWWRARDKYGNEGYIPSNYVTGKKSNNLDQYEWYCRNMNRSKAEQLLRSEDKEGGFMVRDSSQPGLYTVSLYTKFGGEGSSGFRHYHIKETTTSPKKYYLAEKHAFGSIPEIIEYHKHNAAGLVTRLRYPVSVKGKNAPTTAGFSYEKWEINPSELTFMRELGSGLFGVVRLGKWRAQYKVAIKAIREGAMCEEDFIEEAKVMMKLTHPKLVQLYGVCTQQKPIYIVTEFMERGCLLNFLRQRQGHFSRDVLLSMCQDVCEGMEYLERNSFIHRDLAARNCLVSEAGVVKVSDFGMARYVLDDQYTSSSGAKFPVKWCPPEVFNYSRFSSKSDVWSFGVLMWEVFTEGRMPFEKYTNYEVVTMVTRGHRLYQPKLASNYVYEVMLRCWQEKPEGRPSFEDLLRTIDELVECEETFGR
BMX, sequence (P51813 whole entry): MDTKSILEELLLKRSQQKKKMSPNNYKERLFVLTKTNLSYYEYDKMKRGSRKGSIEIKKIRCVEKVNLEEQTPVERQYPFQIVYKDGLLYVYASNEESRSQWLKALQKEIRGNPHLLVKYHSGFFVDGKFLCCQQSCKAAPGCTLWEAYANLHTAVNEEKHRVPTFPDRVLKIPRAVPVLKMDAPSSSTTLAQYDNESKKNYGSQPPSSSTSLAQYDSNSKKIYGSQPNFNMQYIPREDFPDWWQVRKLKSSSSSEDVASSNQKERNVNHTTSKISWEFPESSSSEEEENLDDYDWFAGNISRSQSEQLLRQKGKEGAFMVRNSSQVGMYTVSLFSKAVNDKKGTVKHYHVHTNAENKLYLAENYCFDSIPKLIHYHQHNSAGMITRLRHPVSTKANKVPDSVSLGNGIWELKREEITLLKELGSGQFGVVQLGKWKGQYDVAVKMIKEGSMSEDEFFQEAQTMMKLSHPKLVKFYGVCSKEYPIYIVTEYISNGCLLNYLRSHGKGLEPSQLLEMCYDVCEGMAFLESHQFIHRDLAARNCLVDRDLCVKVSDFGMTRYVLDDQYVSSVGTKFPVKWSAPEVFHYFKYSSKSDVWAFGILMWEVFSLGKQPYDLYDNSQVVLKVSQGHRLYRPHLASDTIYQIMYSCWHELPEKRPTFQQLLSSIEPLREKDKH
MEK5, sequence (Q13163 whole entry): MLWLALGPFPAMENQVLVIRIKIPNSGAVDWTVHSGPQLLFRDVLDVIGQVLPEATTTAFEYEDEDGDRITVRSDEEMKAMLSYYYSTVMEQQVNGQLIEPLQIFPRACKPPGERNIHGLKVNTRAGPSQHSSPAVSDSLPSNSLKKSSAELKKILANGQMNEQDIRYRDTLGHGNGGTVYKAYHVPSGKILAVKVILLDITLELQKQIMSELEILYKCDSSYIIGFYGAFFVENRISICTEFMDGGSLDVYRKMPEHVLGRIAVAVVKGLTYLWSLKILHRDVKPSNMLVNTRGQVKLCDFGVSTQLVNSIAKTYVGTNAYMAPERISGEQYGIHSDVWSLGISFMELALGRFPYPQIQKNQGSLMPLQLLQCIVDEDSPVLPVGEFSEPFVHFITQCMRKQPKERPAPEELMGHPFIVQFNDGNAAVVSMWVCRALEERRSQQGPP
CLK2, sequence (P49760 whole entry): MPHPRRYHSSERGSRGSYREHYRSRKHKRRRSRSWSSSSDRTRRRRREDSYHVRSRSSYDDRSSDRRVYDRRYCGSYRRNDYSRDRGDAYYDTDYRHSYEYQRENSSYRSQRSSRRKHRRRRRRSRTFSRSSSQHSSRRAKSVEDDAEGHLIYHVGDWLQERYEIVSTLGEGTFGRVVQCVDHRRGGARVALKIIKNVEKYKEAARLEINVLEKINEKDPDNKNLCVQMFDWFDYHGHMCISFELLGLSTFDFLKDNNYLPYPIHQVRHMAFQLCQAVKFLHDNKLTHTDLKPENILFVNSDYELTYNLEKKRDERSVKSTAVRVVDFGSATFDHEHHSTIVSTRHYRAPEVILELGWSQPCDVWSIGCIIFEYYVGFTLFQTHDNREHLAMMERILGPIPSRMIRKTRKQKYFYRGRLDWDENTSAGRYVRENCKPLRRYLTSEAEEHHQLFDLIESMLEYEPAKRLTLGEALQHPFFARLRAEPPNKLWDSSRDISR
Description for C4-2 cells: Data were normalized to control group (DMSO) and represented by the mean of at least two independent measurement with standard error <20%. GI50 were calculated using Prism 5.0 (GraphPad Software, San Diego, Calif.).
Description for CLK1: as §2
Description for CLK2: as §2
Description for DYRK1A: as §2
Description for IRAK3: as §2
Description for JNK3: as §2
Description for MEK5: as §2
Description for PIK4CB: as §2
Description for Ramos cells: Various cell lines were used including Waldenström's macroglobulinemia (WM) cell lines (BCWM.1, MWCL-1, RPCI-WM1) and B-cell lymphoma cell lines (OCI-Ly3, Ramos, OCI-Ly19). Cells were seeded into 384 well plates with the EL406 Combination Washer Dispenser (BioTek Instruments, Inc.) and inhibitor compounds were injected into the cells culture media with the JANUS Automated Workstation (PerkinElmer Inc.).
Description for YSK4: as §2

Consider `C=CC(=O)Nc1cc(-n2c(=O)ccc3cnc4ccc(-c5ccc(NS(C)(=O)=O)cc5)cc4c32)ccc1C` [I-14], for which the half-maximal inhibitory concentration (IC50) on mTORC1 turned out to be 7.4 µM; against BMX, 0.00799 µM; on TEC it was 0.653 µM; at BLK, 0.377 µM; against mTOR [2], 0.325 µM; in the test with RV-1 cells (RV-1, 120 h, 5 day incubation) it was 2.53 µM. Further, the inhibition at 1 µM turned out to be 73% at IRAK3; 100% at JNK3; 100% at DYRK1A; 100% at YSK4; 79% at PIK4CB; 100% on MEK5. Moreover, the inhibition at 1 µM at CLK1 is 95%; on mTOR [5], 45%; at CLK2 it was 100%. Besides, the GI50 in the test on C4-2 cells was > 10 µM; in test [1] it was 5.83 µM; in [3], > 10 µM; in the test with RV-1 cells (RV-1) it was 2.54 µM. Also, the 50% effective concentration (EC50) in the test on Ramos cells is > 20 µM. For the same compound, in test [4], the “growth inhibition of cells expressing wild-type BMX versus C496S mutant” value is on record as “more potently inhibits growth of cells expressing the wild-type BMX than the C496S mutant”.
